{"source": "patent US20020009509A1", "about": "“Soya extract containing lipids, process for its production, and pharmaceutical and cosmetic composition” (priority 1999, published 2002)", "system": "dry skin", "assay": "Skin hydration of dry skin measured as electric capacitance of the horny layer (Corneometer CM 820)", "type": "in vivo", "conditions": "1.5% extract solution or 2% collagen", "protocol": "The treatment according to the invention was with an emulsion, in water, containing the extract according to the invention and 2% hydroxyethylcellulose. Skin hydration was measured as electric capacitance of the horny layer using a commercially available device (Corneometer CM 820, Courage+ Kazaka, Cologne, Germany). The mean value of five consecutive measurements was determined and recorded as the measured value. The electric capacitance is expressed by means of an arbitrary scale ranging from 0 to 100 units. Groups of 10 subjects were used.", "data": [{"substance": "collagen", "values": [{"measurement": "Hydration (units), After 60 min", "setting": "60 min after treatment, arbitrary scale 0 to 100 units, groups of 10 subjects, *P < 0.05, **P < 0.001", "value": "57.7 ± 0.1* units"}, {"measurement": "Hydration, Change %", "setting": "after 60 min versus starting value", "value": 35.6, "unit": "%"}, {"measurement": "Hydration (units), Starting value", "setting": "before treatment, arbitrary scale 0 to 100 units, groups of 10 subjects", "value": "42.7 ± 0.4", "unit": "units"}]}]}
